The results in this text go back to patent US11998539B2, “Substituted aminoquinolones as DGKalpha inhibitors for immune activation” (Bayer Aktiengesellschaft, priority 2019, dated 2024).

Usually IC50 stands for the concentration needed to halve the response being measured.

Sequence of DGKα (P23743 other isoform, or with tags, fused parts or gaps): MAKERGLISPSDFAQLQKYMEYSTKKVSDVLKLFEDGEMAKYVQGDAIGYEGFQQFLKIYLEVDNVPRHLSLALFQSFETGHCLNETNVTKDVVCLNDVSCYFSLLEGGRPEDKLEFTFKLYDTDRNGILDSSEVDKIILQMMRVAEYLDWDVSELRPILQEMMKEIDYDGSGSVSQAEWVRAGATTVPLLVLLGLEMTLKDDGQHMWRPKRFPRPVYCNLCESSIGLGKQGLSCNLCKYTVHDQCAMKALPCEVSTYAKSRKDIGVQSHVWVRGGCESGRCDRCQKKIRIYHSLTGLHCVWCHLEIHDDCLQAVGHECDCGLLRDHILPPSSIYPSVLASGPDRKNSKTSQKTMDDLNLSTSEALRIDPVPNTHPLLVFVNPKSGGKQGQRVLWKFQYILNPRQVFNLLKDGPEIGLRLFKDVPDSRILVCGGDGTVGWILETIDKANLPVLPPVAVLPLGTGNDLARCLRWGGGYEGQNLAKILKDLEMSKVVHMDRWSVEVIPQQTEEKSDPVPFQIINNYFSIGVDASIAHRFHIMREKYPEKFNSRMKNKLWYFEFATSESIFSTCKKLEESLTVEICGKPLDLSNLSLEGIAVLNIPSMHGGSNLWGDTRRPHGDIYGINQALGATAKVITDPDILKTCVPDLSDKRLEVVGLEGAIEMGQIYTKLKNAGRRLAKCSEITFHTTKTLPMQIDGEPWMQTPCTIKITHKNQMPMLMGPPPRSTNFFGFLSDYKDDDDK

For the assay, the target named is DGKα (Homo sapiens (Human), UniProt P23743). Put plainly: Human DGKα kinase activity inhibition assay (ADP-Glo). The assay is classed as biochemical. Conditions: recombinant full-length human DGKα, 55 μM ATP, 7 μM 1,2-dioleoyl-sn-glycerol, read-out: IC50 values of examples in in vitro human DGKa kinase activity inhibition assays. Put shortly:
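Recombinant full-length human DGKα (C-terminal FLAG, from insect cells) phosphorylated 1,2-dioleoyl-sn-glycerol presented in octyl-glucopyranoside micelles. ADP formed was quantified by ADP-Glo luminescence. Compounds were added from 100-fold DMSO stocks.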
On to `Cn1c(=O)c(C(N)=O)c(N2CCC(O)(c3cc4ccccc4s3)CC2)c2ccccc21` [Example 456, 4-[4-(1-benzothiophen-2-yl)-4-hydroxypiperidin-1-yl]-1-methyl-2-oxo-1,2-dihydroquinoline-3-carboxamide], for which the IC50 is 41 nM.

For `Cn1c(=O)c(C#N)c(N2CCC(c3ccc(OCc4ccccc4)cc3)CC2)c2ccccc21` [Example 48, 4-{4-[4-(benzyloxy)phenyl]piperidin-1-yl}-1-methyl-2-oxo-1,2-dihydroquinoline-3-carbonitrile], the IC50 came to 3 nM.

Regarding `Cc1ccc2oc(C3CCN(c4c(C(N)=O)c(=O)n(C)c5cc(OC6COC6)ccc45)CC3)nc2c1` [Example 485, 1-methyl-4-[4-(5-methyl-1,3-benzoxazol-2-yl)piperidin-1-yl]-7-[(oxetan-3-yl)oxy]-2-oxo-1,2-dihydroquinoline-3-carboxamide], the IC50 came to 2 nM.

Take `Cc1ccc2oc(C3CCN(c4c(C#N)c(=O)n(C)c5cc(C)ccc45)CC3)nc2c1` [Example 221, 1,7-dimethyl-4-[4-(5-methyl-1,3-benzoxazol-2-yl)piperidin-1-yl]-2-oxo-1,2-dihydroquinoline-3-carbonitrile]: the IC50 stood at 1.8 nM.

For the compound `Cn1c(=O)c(C#N)c(N2CCC(c3nnc(-c4cccc(Cl)c4)o3)CC2)c2ccccc21` [Example 354, 4-{4-[5-(3-chlorophenyl)-1,3,4-oxadiazol-2-yl]piperidin-1-yl}-1-methyl-2-oxo-1,2-dihydroquinoline-3-carbonitrile], the IC50 is 112 nM.

Consider `Cn1c(=O)c(C#N)c(N2CCC(c3nc4cc(F)ccc4s3)CC2)c2ccccc21` [Example 13, 4-[4-(5-fluoro-1,3-benzothiazol-2-yl)piperidin-1-yl]-1-methyl-2-oxo-1,2-dihydroquinoline-3-carbonitrile], for which the IC50 amounted to 5.1 nM.

With `Cn1c(=O)c(C#N)c(N2CCC(c3ccc(C(N)=O)cc3)CC2)c2ccccc21` [Example 330, 4-[1-(3-cyano-1-methyl-2-oxo-1,2-dihydroquinolin-4-yl)piperidin-4-yl]benzamide], the IC50 was 217 nM.

For the compound `Cc1ccc2oc(C3(C)CCN(c4c(C(N)=O)c(=O)n(C)c5ccc(C#N)cc45)CC3)nc2c1` [Example 208, 6-cyano-1-methyl-4-[4-methyl-4-(5-methyl-1,3-benzoxazol-2-yl)piperidin-1-yl]-2-oxo-1,2-dihydroquinoline-3-carboxamide], the IC50 is 3.4 nM.

For `CC(C)Oc1ccc(C2CCN(c3c(C#N)c(=O)n(C)c4ccccc34)CC2)cc1` [Example 38, 1-methyl-2-oxo-4-(4-{4-[(propan-2-yl)oxy]phenyl}piperidin-1-yl)-1,2-dihydroquinoline-3-carbonitrile], the IC50 amounted to 1.5 nM.

Regarding `Cn1c(=O)c(C(N)=O)c(N2CCC(c3nc4ccccc4o3)CC2)c2cccc(Cl)c21` [Example 309, 4-[4-(1,3-benzoxazol-2-yl)piperidin-1-yl]-8-chloro-1-methyl-2-oxo-1,2-dihydroquinoline-3-carboxamide], the IC50 worked out at 101 nM.

In the case of `Cn1c(=O)c(C#N)c(N2CCC(c3cccc(C(F)F)c3)CC2)c2ccccc21` [Example 87, 4-{4-[3-(difluoromethyl)phenyl]piperidin-1-yl}-1-methyl-2-oxo-1,2-dihydroquinoline-3-carbonitrile], the IC50 came to 7.1 nM.

For `Cc1ccc2oc(C3(C)CCN(c4c(C#N)c(=O)n(C)c5cc(NC6CC6)ccc45)CC3)nc2c1` [Example 418, 7-(cyclopropylamino)-1-methyl-4-[4-methyl-4-(5-methyl-1,3-benzoxazol-2-yl)piperidin-1-yl]-2-oxo-1,2-dihydroquinoline-3-carbonitrile], the IC50 was determined as 1.4 nM.

With `COc1ccc(C2CCN(c3c(C#N)c(=O)n(C)c4cc(N=S(C)(C)=O)ccc34)CC2)cc1` [Example 99, 7-{[dimethyl(oxo)-λ^6-sulfanylidene]amino}-4-[4-(4-methoxyphenyl)piperidin-1-yl]-1-methyl-2-oxo-1,2-dihydroquinoline-3-carbonitrile], the IC50 turned out to be 64 nM.

Take `COc1ccc(C2CCN(c3c(C#N)c(=O)n(C)c4ccccc34)CC2)cc1` [Example 41, 4-[4-(4-methoxyphenyl)piperidin-1-yl]-1-methyl-2-oxo-1,2-dihydroquinoline-3-carbonitrile]: the IC50 worked out at 4.9 nM.

With `COCCc1cccc2oc(C3CCN(c4c(C(N)=O)c(=O)n(C)c5ccccc45)CC3)nc12` [Example 315, 4-{4-[4-(2-methoxyethyl)-1,3-benzoxazol-2-yl]piperidin-1-yl}-1-methyl-2-oxo-1,2-dihydroquinoline-3-carboxamide], the IC50 was 46 nM.

As for `Cn1c(=O)c(C#N)c(N2CCC(c3nc4cc(C5COC5)ccc4o3)CC2)c2ccccc21` [Example 287, 1-methyl-4-{4-[5-(oxetan-3-yl)-1,3-benzoxazol-2-yl]piperidin-1-yl}-2-oxo-1,2-dihydroquinoline-3-carbonitrile], the IC50 is 22 nM.

For the compound `Cc1ccc2oc(C3(C)CCN(c4c(C(N)=O)c(=O)n(C)c5cc(O)c(Br)cc45)CC3)nc2c1` [Example 512, 6-bromo-7-hydroxy-1-methyl-4-[4-methyl-4-(5-methyl-1,3-benzoxazol-2-yl)piperidin-1-yl]-2-oxo-1,2-dihydroquinoline-3-carboxamide], the IC50 worked out at 0.8 nM.

Turning to `Cn1c(=O)c(C#N)c(N2CCC(c3nc4cc(F)ccc4o3)CC2)c2ccccc21` [Example 6, 4-[4-(5-fluoro-1,3-benzoxazol-2-yl)piperidin-1-yl]-1-methyl-2-oxo-1,2-dihydroquinoline-3-carbonitrile], the IC50 worked out at 4.3 nM.

In the case of `COc1ccc2c(c1)c(N1CCC(c3nc(-c4ccccc4C)no3)CC1)c(C#N)c(=O)n2C` [Example 438, 6-methoxy-1-methyl-4-{4-[3-(2-methylphenyl)-1,2,4-oxadiazol-5-yl]piperidin-1-yl}-2-oxo-1,2-dihydroquinoline-3-carbonitrile], the IC50 stood at 31 nM.

For `COc1ccc(C2CCN(c3c(C(N)=O)c(=O)n(C)c4cc(C5COC5)ccc34)CC2)cc1` [Example 115, 4-[4-(4-methoxyphenyl)piperidin-1-yl]-1-methyl-7-(oxetan-3-yl)-2-oxo-1,2-dihydroquinoline-3-carboxamide], the IC50 is 20 nM.

With `COc1ccc(-c2noc(C3CCN(c4c(C(N)=O)c(=O)n(C)c5ccccc45)CC3)n2)cc1` [Example 459, 4-{4-[3-(4-methoxyphenyl)-1,2,4-oxadiazol-5-yl]piperidin-1-yl}-1-methyl-2-oxo-1,2-dihydroquinoline-3-carboxamide], the IC50 came out at 9.8 nM.

Consider `Cc1cccc(-c2nnc(C3CCN(c4c(C#N)c(=O)n(C)c5ccc(Br)cc45)CC3)o2)c1` [Example 443, 6-bromo-1-methyl-4-{4-[5-(3-methylphenyl)-1,3,4-oxadiazol-2-yl]piperidin-1-yl}-2-oxo-1,2-dihydroquinoline-3-carbonitrile], for which the IC50 worked out at 9.1 nM.

Take `Cn1c(=O)c(C(N)=O)c(N2CCC(C)(c3nc4ccccc4o3)CC2)c2ccccc21` [Example 105, 4-[4-(1,3-benzoxazol-2-yl)-4-methylpiperidin-1-yl]-1-methyl-2-oxo-1,2-dihydroquinoline-3-carboxamide]: the IC50 was found to be 1.9 nM.

Turning to `COc1cccc(-c2csc(C3CCN(c4c(C(N)=O)c(=O)n(C)c5ccccc45)CC3)n2)c1` [Example 476, 4-{4-[4-(3-methoxyphenyl)-1,3-thiazol-2-yl]piperidin-1-yl}-1-methyl-2-oxo-1,2-dihydroquinoline-3-carboxamide], the IC50 is 7.1 nM.

As for `Cn1c(=O)c(C#N)c(N2CCC(c3nc4cc(Cl)ccc4o3)CC2)c2cccc(Br)c21` [Example 159, 8-bromo-4-[4-(5-chloro-1,3-benzoxazol-2-yl)piperidin-1-yl]-1-methyl-2-oxo-1,2-dihydroquinoline-3-carbonitrile], the IC50 was determined as 383 nM.

Consider `Cc1nc2ccc(C3CCN(c4c(C#N)c(=O)n(C)c5ccccc45)CC3)cc2o1` [Example 376, 1-methyl-4-[4-(2-methyl-1,3-benzoxazol-6-yl)piperidin-1-yl]-2-oxo-1,2-dihydroquinoline-3-carbonitrile], for which the IC50 worked out at 14 nM.

`Cc1ccc2oc(C3(C)CCN(c4c(C#N)c(=O)n(C)c5cc(C#N)ccc45)CC3)nc2c1` [Example 249, 1-methyl-4-[4-methyl-4-(5-methyl-1,3-benzoxazol-2-yl)piperidin-1-yl]-2-oxo-1,2-dihydroquinoline-3,7-dicarbonitrile]: the IC50 was determined as 7.2 nM.

For the compound `COCCNc1cc2c(cc1C)c(N1CCC(c3nc4cc(C)ccc4o3)CC1)c(C#N)c(=O)n2C` [Example 547, 7-[(2-methoxyethyl)amino]-1,6-dimethyl-4-[4-(5-methyl-1,3-benzoxazol-2-yl)piperidin-1-yl]-2-oxo-1,2-dihydroquinoline-3-carbonitrile], the IC50 worked out at 0.6 nM.

For `COc1ccc2oc(C3(F)CCN(c4c(C#N)c(=O)n(C)c5ccccc45)CC3)nc2c1` [Example 393, 4-[4-fluoro-4-(5-methoxy-1,3-benzoxazol-2-yl)piperidin-1-yl]-1-methyl-2-oxo-1,2-dihydroquinoline-3-carbonitrile], the IC50 was determined as 106 nM.

With `Cc1nc2cc(C3CCN(c4c(C#N)c(=O)n(C)c5ccccc45)CC3)ccc2s1` [Example 346, 1-methyl-4-[4-(2-methyl-1,3-benzothiazol-5-yl)piperidin-1-yl]-2-oxo-1,2-dihydroquinoline-3-carbonitrile], the IC50 was 28 nM.

Turning to `Cc1ccc2c(c1)c(N1CCC(C)(c3nc4ccccc4o3)CC1)c(C#N)c(=O)n2C` [Example 214, 4-[4-(1,3-benzoxazol-2-yl)-4-methylpiperidin-1-yl]-1,6-dimethyl-2-oxo-1,2-dihydroquinoline-3-carbonitrile], the IC50 turned out to be 0.9 nM.

In the case of `Cc1cccc2oc(C3CCN(c4c(C#N)c(=O)n(C)c5ccccc45)CC3)nc12` [Example 17, 1-methyl-4-[4-(4-methyl-1,3-benzoxazol-2-yl)piperidin-1-yl]-2-oxo-1,2-dihydroquinoline-3-carbonitrile], the half-maximal inhibitory concentration (IC50) was found to be 12 nM.
